Measured values: patent US20230322670A1, “DIPYRROLIDINE-1-ONE COMPOUNDS AND THEIR PREPARATION METHOD” (Poseidon Pharmaceutical Co., Ltd., priority 2020, published 2023)

Test system: not listed separately
Experiment: Antitumor activity test, sulfonyl rhodamine B (SRB) method
Assay type: cell-based, human
Conditions: compound concentration 10^−5 M, A-549 cells cultured 72 hours, OD560
Method: (§1) Antitumor activity test: Sulfonyl rhodamine B (SRB) method was used to determine the in vitro anti-tumor activity of A-549 […] cancer cells. A-549 human […] cancer cells in logarithmic growth were inoculated into a 96 well microculture plate with the amount of 90 μL/well. 24 hours later, the solutions respectively containing the compounds 1a, 1b, 1c, 1d, 1e, 1f, 1g, 1h, and 1i of the disclosure were added to the wells with each 10 μL/well, and three wells for each concentration. A cell-free zero adjustment hole was also provided. The concentrations of the compounds 1a, 1b, 1c, 1d, 1e, 1f, 1g, 1h, and 1i in corresponding solution were all 10^−5 M. The tumor cells were cultured at 37° C. under 5% CO2 for 72 hours. The culture medium was discarded, and 100 μL/well of 10% TCA was added to the cells for fixing at 4° C. for 1 hour. The cells were washed three times with distilled water, and dried naturally. 4 mg/mL SRB (Sigma) staining solution of 100 μL/well was added for staining at room temperature for 15 minutes, washed three times with 1% acetic acid aqueous solution, and dried naturally. 100 μL/well of 10 mM Tris base aqueous solution was further added. Then, the optical density (OD560) value was measured using an enzyme-linked immunosorbent assay at a wavelength of 560 nm. The inhibition rate of the tested compounds on tumor cell growth was calculated according to the formula: (control group OD value-administration group OD value)/control group OD value×100%.

Molecule	Inhibitory rates on tumor cell growth (%)
3,7,9-trimethyl-8-(2-carboxyethyl) -2-(2-p-toluenesulfoethyl)-Dipyrrolidene-1-one [Compound 1f]	23.5%
9-tert butoxycarbonyl-2,7-dimethyl-8-(2-methoxycarbonylethyl)-3-(2-p-toluenesulfoethyl)-dipyrrolidene-1-one [Compound 1a]	72.3%
3,7,9-trimethyl-8-(2-methoxycarbonyl ethyl)-2-(2-p-tolylene sulfonyl group ethyl)-dipyrrolidone [Compound 1h]	11.7%
9-tert-butyloxycarbonyl-3,7-dimethyl-8-(2-methoxycarbonyl ethyl)-2-(2-p-tolylene sulfonyl group ethyl)-dipyrrolomethen-1-one [Compound 1b]	57.0%
3,7-dimethyl-8-(2-ethoxycarbonylethyl) -2-(2-p-toluenesulfoethyl)-dipyrrolidene-1-one [Compound 1g]	35.6%
COC(=O)CCc1c(C(=O)OC(C)(C)C)[nH]c(C=C2NC(=O)C(CCS(=O)(=O)c3ccc(C)cc3)=C2C)c1C [Compound 1c, 9-tert-butyloxycarbonyl-3,7-dimethyl-8-(2-methoxycarbonylethyl)-2-(2-nenenebap-toluenesulfonylethyl)-dipyrrolomethen-1-one]	34.4%
COC(=O)CCc1c(C)[nH]c(C=C2NC(=O)C(CCS(=O)(=O)c3ccc(C)cc3)=C2C)c1C [Compound 1i, 3,7,9-trimethyl-8-(2-methoxycarbonylethyl)-2-(2-nenenebap-toluenesulfonylethyl)-dipyrrolomethen-1-one]	28.4%

Test system: A-549 human breast cancer cells
Experiment: as above
Assay type: cell-based
Conditions: Homo sapiens, A549, compound concentration 10^−5 M, A-549 cells cultured 72 hours, OD560, read-out: Inhibitory rates on tumor cell growth (%)
Method: as §1

Molecule	inhibition at 10 µM
COC(=O)CCc1c(C)[nH]c(/C=C2\NC(=O)C(CC[S+]([O-])c3ccc(C)cc3)=C2C)c1C (stereo not drawn) [Compound 1e, 3,7,9-trimethyl-8-(2-methoxycarbonylethyl)-2-(2-p-tolylenesulfonylgroupethyl)-dipyrrolidone]	63.4%
COC(=O)CCc1c(C)[nH]c(/C=C2\NC(=O)C(CCSc3ccc(C)cc3)=C2C)c1C [Compound 1d, 3,7,9-trimethyl-8-(2-methoxycarbonylethyl) -2-(2-p-toluenesulfoethyl)-dipyrrolidene-1-one]	37.8%
